Measurements as given in ChEMBL document CHEMBL2434843, “Synthesis and evaluation of α-ketotriazoles and α,β-diketotriazoles as inhibitors of Mycobacterium tuberculosis” (Eur J Med Chem, 2013).
In brackets after ≈: the same amount, converted by molar mass.

Legend:
Assay type in all cases: functional
[1] = tested on: Mycobacterium tuberculosis; assay: Antitubercular activity against multidrug-resistant Mycobacterium tuberculosis IC3 assessed as growth inhibition by BACTEC MGIT 960 method
[2] = tested on: Mycobacterium tuberculosis; assay: Antitubercular activity against multidrug-resistant Mycobacterium tuberculosis IC2 assessed as growth inhibition by BACTEC MGIT 960 method
[3] = tested on: Mycobacterium tuberculosis; assay: Antitubercular activity against multidrug-resistant Mycobacterium tuberculosis IC1 assessed as growth inhibition by BACTEC MGIT 960 method

COc1ccc(C(=O)C(=O)c2cn(Cc3ccccc3)nn2)cc1
MIC [1]: 6.9 µM (≈ 2.22 µg/mL)
MIC [2]: 6.9 µM (≈ 2.22 µg/mL)
MIC [3]: 6.9 µM (≈ 2.22 µg/mL)

O=C(C(=O)c1ccc(Cl)cc1Cl)c1cn(Cc2ccccc2)nn1
MIC [1]: 7.6 µM (≈ 2.74 µg/mL)
MIC [2]: 7.6 µM (≈ 2.74 µg/mL)
MIC [3]: 7.6 µM (≈ 2.74 µg/mL)
